For the experiment, the target named is Proto-oncogene tyrosine-protein kinase receptor Ret (Homo sapiens) (UniProt P07949). Briefly: Inhibition of CCDC6/RET (unknown origin) expressed in mouse BaF3 cells assessed as reduction in cell proliferation after 72 hrs by MTT assay. Background: Tetrazolium assays rely on reduction of a dye to a coloured formazan, in cell work by metabolically active cells.
Sequence of Proto-oncogene tyrosine-protein kinase receptor Ret (Homo sapiens) (P07949 whole entry, looked up): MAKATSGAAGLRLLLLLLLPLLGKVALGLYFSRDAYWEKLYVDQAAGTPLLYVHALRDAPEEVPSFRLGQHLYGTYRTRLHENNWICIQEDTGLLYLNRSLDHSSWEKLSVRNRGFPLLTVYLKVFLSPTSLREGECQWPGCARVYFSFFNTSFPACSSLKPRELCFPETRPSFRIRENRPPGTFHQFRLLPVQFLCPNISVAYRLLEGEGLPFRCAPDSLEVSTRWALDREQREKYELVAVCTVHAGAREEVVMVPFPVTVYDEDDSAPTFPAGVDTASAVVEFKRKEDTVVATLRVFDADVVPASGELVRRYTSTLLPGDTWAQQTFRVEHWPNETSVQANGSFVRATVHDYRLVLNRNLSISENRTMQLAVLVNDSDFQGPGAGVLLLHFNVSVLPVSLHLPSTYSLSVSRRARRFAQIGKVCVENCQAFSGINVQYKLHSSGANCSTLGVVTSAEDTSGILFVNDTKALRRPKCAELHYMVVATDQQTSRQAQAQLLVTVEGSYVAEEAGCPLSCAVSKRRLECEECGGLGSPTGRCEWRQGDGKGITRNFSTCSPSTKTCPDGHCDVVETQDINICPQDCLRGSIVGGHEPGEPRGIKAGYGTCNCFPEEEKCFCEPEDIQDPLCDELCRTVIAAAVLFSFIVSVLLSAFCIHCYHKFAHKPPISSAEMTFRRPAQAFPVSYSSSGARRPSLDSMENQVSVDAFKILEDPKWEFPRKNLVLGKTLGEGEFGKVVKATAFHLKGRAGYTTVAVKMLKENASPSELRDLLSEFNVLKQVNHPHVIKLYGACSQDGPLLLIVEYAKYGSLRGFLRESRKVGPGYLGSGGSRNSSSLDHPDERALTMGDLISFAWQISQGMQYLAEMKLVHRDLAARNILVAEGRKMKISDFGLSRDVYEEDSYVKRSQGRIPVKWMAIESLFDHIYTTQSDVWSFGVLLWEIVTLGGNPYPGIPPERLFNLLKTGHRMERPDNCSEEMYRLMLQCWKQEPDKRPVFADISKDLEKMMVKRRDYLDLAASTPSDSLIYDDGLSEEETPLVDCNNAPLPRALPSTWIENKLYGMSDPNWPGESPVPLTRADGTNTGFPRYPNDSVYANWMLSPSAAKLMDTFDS

With `CN1CCN(Cc2ccc(NC(=O)c3ccc(Cl)c(-c4noc(-c5cncc(-c6cnn(C)c6)c5)n4)c3)cc2C(F)(F)F)CC1`, the IC50 is 407 nM.

Broadly, the IC50 is the concentration that inhibits the measured activity by half.

Source of the values: BindingDB's records for doi:10.1016/j.bmcl.2016.10.061 (Ocean University of China, 2016).
